Structures can show the parent of a compound that is named as a salt. Where two headings read alike, the source gives them in different places. Each block holds one compound with its values, some of them ahead of it.
How the values were obtained:
[1] = system: DNR-resistant Jurkat cells; test: Chemreversal50: sensitisation of DNR-resistant Jurkat cells to 100 nM DNR; type: cell-based, human; settings: read-out: Chemorev50 (SD), 50% of reversal of chemotherapeutic effect determined in in vitro screen
Experimental: To enable this analysis, a 3-log range of each “hit” compound was added in 2 mL aliquots to a 6 well plate and, over a range of 7 days, total cell number and viability was measured using a hemacytometer and trypan blue staining. Fresh media containing 100 nM DNR was added over the course of the experiment to maintain the cell concentration ≧100,000 cells/mL. […] The differences (if any) between the Chemreversal50 and TD50 gave an approximation of an in vitro “therapeutic index” for each compound.

ABCB1 [2] = target: T1, ABCB1 (Homo sapiens, UniProt P08183); test: JC-1 efflux HyperCyt flow cytometry assay (ABCB1 reversal); settings: for hit in primary screen of Prestwick Chemical Library for ABCB1-mediated JC-1 efflux: final concentration of 5 μM
T1 sequence (P08183 whole entry): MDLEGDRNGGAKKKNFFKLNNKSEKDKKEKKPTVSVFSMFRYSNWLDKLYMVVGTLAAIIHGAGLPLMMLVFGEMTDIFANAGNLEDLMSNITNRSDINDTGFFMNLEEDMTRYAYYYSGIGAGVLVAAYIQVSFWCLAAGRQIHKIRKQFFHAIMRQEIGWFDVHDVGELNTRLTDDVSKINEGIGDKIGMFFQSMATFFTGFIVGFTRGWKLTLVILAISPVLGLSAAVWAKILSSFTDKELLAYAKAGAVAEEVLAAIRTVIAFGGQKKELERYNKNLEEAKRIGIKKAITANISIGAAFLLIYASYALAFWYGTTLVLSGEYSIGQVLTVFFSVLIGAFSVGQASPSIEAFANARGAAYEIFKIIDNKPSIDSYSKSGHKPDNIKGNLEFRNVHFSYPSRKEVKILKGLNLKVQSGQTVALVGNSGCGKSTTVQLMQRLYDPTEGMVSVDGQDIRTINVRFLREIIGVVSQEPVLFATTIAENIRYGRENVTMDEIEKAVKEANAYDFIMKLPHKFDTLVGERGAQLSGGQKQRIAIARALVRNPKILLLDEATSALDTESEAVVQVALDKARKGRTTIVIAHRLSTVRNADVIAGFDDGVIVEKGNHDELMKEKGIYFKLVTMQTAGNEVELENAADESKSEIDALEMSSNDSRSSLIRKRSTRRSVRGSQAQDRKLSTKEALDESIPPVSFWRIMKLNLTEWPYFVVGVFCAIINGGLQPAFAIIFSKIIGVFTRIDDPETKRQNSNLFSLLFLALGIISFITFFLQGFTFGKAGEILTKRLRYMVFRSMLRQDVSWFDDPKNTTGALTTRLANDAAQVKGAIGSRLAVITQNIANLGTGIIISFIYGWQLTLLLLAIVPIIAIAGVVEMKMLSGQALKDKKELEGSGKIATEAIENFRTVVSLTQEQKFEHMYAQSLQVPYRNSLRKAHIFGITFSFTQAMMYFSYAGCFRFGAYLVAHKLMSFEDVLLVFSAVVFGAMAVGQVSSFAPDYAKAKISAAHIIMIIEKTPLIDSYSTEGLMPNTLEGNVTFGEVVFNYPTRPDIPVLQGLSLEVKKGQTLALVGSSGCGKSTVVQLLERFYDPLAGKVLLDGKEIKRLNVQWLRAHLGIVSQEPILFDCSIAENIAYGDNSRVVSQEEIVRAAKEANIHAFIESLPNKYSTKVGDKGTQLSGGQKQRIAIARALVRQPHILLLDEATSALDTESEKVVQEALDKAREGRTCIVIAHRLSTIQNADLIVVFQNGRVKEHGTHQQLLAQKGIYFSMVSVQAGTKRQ

[3] = system: DNR-resistant Jurkat cells; type: cell-based; settings: media alone, 7 days
ABCG2 = target: T2, ABCG2 (Homo sapiens, UniProt Q9UNQ0); test: JC1 duplex high-throughput flow cytometry assay, ABCG2 (IgMXP3 cells); type: cell-based; settings: 384 well plate
T2 construct: ABCG2-expressing IgMXP3 cells; endogenous in cells; host or cells: IgMXP3 cells (resistant subline of Igrov1)
T2 sequence (Q9UNQ0 1-655): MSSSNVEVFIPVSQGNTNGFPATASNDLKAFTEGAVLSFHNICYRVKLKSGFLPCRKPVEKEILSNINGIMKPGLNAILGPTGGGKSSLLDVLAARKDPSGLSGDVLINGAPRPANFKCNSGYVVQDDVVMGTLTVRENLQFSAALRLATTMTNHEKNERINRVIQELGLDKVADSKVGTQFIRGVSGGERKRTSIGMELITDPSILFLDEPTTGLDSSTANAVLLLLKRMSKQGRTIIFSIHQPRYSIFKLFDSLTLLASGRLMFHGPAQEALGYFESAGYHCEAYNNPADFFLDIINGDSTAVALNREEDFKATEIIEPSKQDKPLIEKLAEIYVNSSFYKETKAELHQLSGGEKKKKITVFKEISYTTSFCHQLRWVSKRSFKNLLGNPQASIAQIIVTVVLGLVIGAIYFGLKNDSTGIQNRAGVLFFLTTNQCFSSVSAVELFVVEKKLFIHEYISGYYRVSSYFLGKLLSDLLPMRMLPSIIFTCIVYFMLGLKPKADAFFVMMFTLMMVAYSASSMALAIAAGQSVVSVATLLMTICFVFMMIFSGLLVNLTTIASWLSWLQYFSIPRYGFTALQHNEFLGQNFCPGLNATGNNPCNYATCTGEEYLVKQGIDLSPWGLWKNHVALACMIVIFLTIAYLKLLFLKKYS
Experimental: (§1) Jurkat-DNR cells (ABCB1) were labeled with 0.5 ng/ml FarRed DDAO CellTrace SE (Invitrogen) for 15 min at room temperature, washed twice by centrifugation, then combined with unlabeled IgMXP3 cells (ABCG2) in the assay buffer. The label binds covalently to amine groups in cells and is detected at red fluorescence emission wavelengths of 665±10 nm upon excitation at 635 nm. Final in-well concentration of cells was 3×10^6 cell/ml at a 1:1 ratio of the two cell types.

ABCB1 [4] = target: T1, ABCB1; test: JC1 duplex high-throughput flow cytometry assay, ABCB1 (Jurkat-DNR cells); type: cell-based; design: endogenous in cells; host or cells: Jurkat cells selected for daunorubicin resistance (Jurkat-DNR); settings: 384 well plate
Experimental: as §1

[5] = system: Jurkat DNR resistant cells; test: Chemosensitivity of DNR-resistant Jurkat cells; type: cell-based, human; settings: for IC50: Homo sapiens, Jurkat cells with acquired resistance to DNR
parental Jurkat cells = test: Chemosensitivity of parental (therapy sensitive) Jurkat cells; type: cell-based; settings: Homo sapiens
ABCB1 [6] = target: T1, ABCB1; settings: 5 μM
[7] = Homo sapiens, 168 h, DNR-resistant Jurkat cells, fixed 100 nM DNR, 7 days, trypan blue viability

IC50 (ABCB1 [2]): 7.4 ± 0.95 µM
Compound: CC(C)COCC(CN(Cc1ccccc1)c1ccccc1)N1CCCC1 (stereo not shown) [Bepridil HCL, bepridil]
EC50 [1, 7]: 3.3 µM

Compound: Cc1c2ccncc2c(C)c2c1[nH]c1ccccc12 [Ellipticine, ellipticine]
EC50 ([1]; Homo sapiens, Jurkat, 168 h): 1.8 µM | IC50 (ABCB1 [2]): 0.99 ± 0.014 µM | TD50 (SD), 50% toxic dose determined in in vitro screen [3]: 3.8 µM | TD50 (SD), 50% toxic dose determined in in vitro screen ([3]; listed as ellipticine): 2.7 ± 1.56 µM

IC50 (ABCB1 [2]): 4.6 ± 0.28 µM
Compound: Fc1ccc(C(OCCN2CCN(CCCc3ccccc3)CC2)c2ccc(F)cc2)cc1 [GBR 12909 HCL, GBR 12909]
EC50 [1, 7]: 2.1 µM

Compound: CC[C@H](c1ccc(O)cc1)[C@@H](CC)c1ccc(O)cc1 [Hexestrol, hexestrol]
EC50 ([1]; Homo sapiens, Jurkat, 168 h): 12.8 µM | IC50 (ABCB1 [2]): 8.3 ± 3.2 µM

Compound: CC(=O)N1CCN(c2ccc(OCC3COC(Cn4ccnc4)(c4ccc(Cl)cc4Cl)O3)cc2)CC1 (stereo not shown) [Ketoconazole, ketoconazole]
EC50 [1, 7]: 3.7 µM

Compound: CC[C@@H](C(=O)[C@@H](C)[C@@H](O)[C@H](C)CCc1ccc(C)c(O)c1C(=O)O)[C@H]1O[C@](CC)([C@H]2CC[C@](O)(CC)[C@H](C)O2)C[C@@H]1C [Lasalocid]
JC1 duplex assay response, ABCG2 (ABCG2): significant assay response for both transporters | JC1 duplex assay response, ABCB1 (ABCB1 [4]): significant assay response for both transporters

IC50 (ABCB1 [2]): 5.4 ± 0.55 µM
Compound: Cc1cccc(C)c1NC(=O)CN1CCN(CCCC(c2ccc(F)cc2)c2ccc(F)cc2)CC1 [Lidoflazine, lidoflazine]
EC50 [1, 7]: 3.1 µM

Compound: C[C@@H]1C[C@H]2[C@@H]3CCC4=CC(=O)C=C[C@]4(C)[C@@]3(Cl)[C@@H](O)C[C@]2(C)[C@@]1(OC(=O)c1ccco1)C(=O)CCl [Mometasone Furoate, mometasone furoate]
EC50 ([1]; DNR-resistant Jurkat cells, fixed 100 nM DNR, 7 days, trypan blue viability): 1.4 ± 0.28 µM | IC50 (ABCB1 [2]; read-out: IC50 (SD), 50% inhibition of drug efflux determined in high-throughput screen, JC-1 efflux, DNR-resistant Jurkat cells): 0.74 ± 0.13 µM | TD50 (SD), 50% toxic dose determined in in vitro screen [3]: 30.4 µM | TD50 (SD), 50% toxic dose determined in in vitro screen ([3]; listed as mometasone): 24.8 ± 8.0 µM

Compound: COC(=O)C1=C(C)NC(C)=C(C(=O)OCCN(C)Cc2ccccc2)C1c1cccc([N+](=O)[O-])c1 (stereo not shown) [Nicardipine HCL, nicardipine]
EC50 [1, 7]: 2.6 µM

IC50 [5]: 1 µM
Compound: C[C@]12C=CC(=O)C=C1CC[C@@H]1[C@@H]2[C@@H](O)C[C@@]2(C)[C@H]1CC[C@]2(O)C(=O)CO [PRED, prednisolone]
increased resistance of DNR-resistant vs parental Jurkat cells [5]: 3 fold | IC50 (parental Jurkat cells): 0.316 µM

Compound: CCCNCC(O)COc1ccccc1C(=O)CCc1ccccc1 (stereo not shown) [Propafenone HCL, propafenone]
EC50 [1, 7]: 4.9 ± 1.3 µM

IC50 (ABCB1 [2]): 1.53 ± 0.5 µM
Compound: COC(=O)[C@H]1[C@H]2C[C@@H]3c4[nH]c5cc(OC)ccc5c4CCN3C[C@H]2C[C@@H](OC(=O)/C=C/c2cc(OC)c(OC)c(OC)c2)[C@@H]1OC [Rescinnamine, rescinnamine]
EC50 [1, 7]: 1 µM

IC50 [5]: 316 µM
Compound: CC[C@]1(O)C[C@H]2CN(CCc3c([nH]c4ccccc34)[C@@](C(=O)OC)(c3cc4c(cc3OC)N(C=O)[C@H]3[C@@](O)(C(=O)OC)[C@H](OC(C)=O)[C@]5(CC)C=CCN6CC[C@]43[C@@H]65)C2)C1 [VCR, Vincristine]
increased resistance of DNR-resistant vs parental Jurkat cells [5]: approximately 70 fold | IC50 (parental Jurkat cells): 6.31 µM

Compound: CC[C@H](C)[C@H]1O[C@]2(C=C[C@@H]1C)C[C@@H]1C[C@@H](C/C=C(\C)[C@@H](O[C@H]3C[C@H](OC)[C@@H](O[C@H]4C[C@H](OC)[C@@H](O)[C@H](C)O4)[C@H](C)O3)[C@@H](C)/C=C/C=C3\CO[C@@H]4[C@H](O)C(C)=C[C@@H](C(=O)O1)[C@]34O)O2 [avermectin]
hit in primary screen of Prestwick Chemical Library for ABCB1-mediated JC-1 efflux (ABCB1 [2]): inhibiting ABCB1-mediated drug efflux

Compound: Cc1cc(C2CCCCC2)n(O)c(=O)c1.NCCO [ciclopirox ethanolamine]
hit in primary screen of Prestwick Chemical Library for ABCB1-mediated JC-1 efflux (ABCB1 [2]): inhibiting ABCB1-mediated drug efflux

hit in primary screen of Prestwick Chemical Library for ABCB1-mediated JC-1 efflux (ABCB1 [6]): inhibiting ABCB1-mediated drug efflux
Compound: CC(=O)O[C@H]1C[C@@]2(C)[C@@H](C[C@@H](O)[C@H]3[C@@]4(C)CC[C@@H](O)[C@@H](C)[C@@H]4CC[C@@]32C)/C1=C(\CCC=C(C)C)C(=O)O [fusidic acid]

Compound: C=C(C)[C@H]1Cc2c(ccc3c2O[C@@H]2COc4cc(OC)c(OC)cc4[C@@H]2C3=O)O1 [rotenone]
hit in primary screen of Prestwick Chemical Library for ABCB1-mediated JC-1 efflux (ABCB1 [2]): inhibiting ABCB1-mediated drug efflux

hit in primary screen of Prestwick Chemical Library for ABCB1-mediated JC-1 efflux (ABCB1 [6]): inhibiting ABCB1-mediated drug efflux
Compound: CCOC(=O)Oc1c(OC)cc(C(=O)O[C@@H]2C[C@@H]3CN4CCc5c([nH]c6cc(OC)ccc56)[C@H]4C[C@@H]3[C@H](C(=O)OC)[C@H]2OC)cc1OC [syrosingopine]

Compound: COc1c(O[C@@H]2O[C@H](CO)[C@@H](O)[C@H](O)[C@H]2O)cc2c(c1OC)-c1ccc(SC)c(=O)cc1[C@@H](NC(C)=O)CC2 [thiocolchicoside]
hit in primary screen of Prestwick Chemical Library for ABCB1-mediated JC-1 efflux (ABCB1 [2]): inhibiting ABCB1-mediated drug efflux

Compound: L-asparaginase
increased resistance of DNR-resistant vs parental Jurkat cells [5]: no increased resistance

Compound: antimycin
hit in primary screen of Prestwick Chemical Library for ABCB1-mediated JC-1 efflux (ABCB1 [2]): inhibiting ABCB1-mediated drug efflux
